Values belong to the molecule of their own block, whether it stands above or below them.
What was measured:
[1] = target: T1, Amine oxidase [flavin-containing] A (Homo sapiens, UniProt P21397); assay: Inhibition of recombinant human MAO-A using kynuramine as substrate incubated for 30 mins by fluorimetric analysis
T1 sequence (P21397 whole entry): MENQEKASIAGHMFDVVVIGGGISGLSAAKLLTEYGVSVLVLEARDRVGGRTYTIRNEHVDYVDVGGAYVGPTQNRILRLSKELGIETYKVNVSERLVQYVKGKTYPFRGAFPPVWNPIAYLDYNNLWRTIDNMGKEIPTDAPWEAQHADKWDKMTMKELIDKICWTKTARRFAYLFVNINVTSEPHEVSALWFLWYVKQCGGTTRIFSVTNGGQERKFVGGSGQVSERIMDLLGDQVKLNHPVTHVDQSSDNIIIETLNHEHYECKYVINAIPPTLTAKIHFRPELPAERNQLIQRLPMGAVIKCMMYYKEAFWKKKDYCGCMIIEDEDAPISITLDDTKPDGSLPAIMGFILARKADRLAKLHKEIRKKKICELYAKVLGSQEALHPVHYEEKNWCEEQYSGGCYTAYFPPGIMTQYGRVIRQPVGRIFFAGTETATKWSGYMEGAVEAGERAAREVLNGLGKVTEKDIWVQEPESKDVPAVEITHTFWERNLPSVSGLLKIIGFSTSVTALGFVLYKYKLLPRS

[2] = target: T2, Amine oxidase [flavin-containing] B (Homo sapiens, UniProt P27338); assay: Reversible inhibition of recombinant human MAO-B assessed as inhibition constant incubated for 30 mins by dilution assay
T2 sequence (P27338 whole entry): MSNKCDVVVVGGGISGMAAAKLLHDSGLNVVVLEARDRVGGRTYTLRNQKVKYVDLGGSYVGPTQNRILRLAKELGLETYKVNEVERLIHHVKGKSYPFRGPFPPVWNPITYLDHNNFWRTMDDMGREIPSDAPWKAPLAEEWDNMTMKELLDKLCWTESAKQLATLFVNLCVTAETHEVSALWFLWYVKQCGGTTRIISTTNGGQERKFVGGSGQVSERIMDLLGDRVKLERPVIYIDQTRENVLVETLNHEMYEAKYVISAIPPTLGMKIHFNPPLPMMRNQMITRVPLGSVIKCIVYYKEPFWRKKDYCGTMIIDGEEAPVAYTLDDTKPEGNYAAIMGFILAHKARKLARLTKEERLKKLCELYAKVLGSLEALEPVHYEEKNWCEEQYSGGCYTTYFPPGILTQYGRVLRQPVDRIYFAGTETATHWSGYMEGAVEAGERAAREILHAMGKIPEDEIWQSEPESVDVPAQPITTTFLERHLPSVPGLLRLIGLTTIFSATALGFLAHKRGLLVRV

[3] = target: T2, Amine oxidase [flavin-containing] B; assay: Inhibition of recombinant human MAO-B using kynuramine as substrate incubated for 30 mins by fluorimetric analysis
[4] = target: T1, Amine oxidase [flavin-containing] A; assay: Inhibition of recombinant human MAO-A using p-tyramine as substrate incubated for 45 mins by Amplex Red reagent and horseradish peroxidase based fluorescence microplate reader analysis
[5] = target: T1, Amine oxidase [flavin-containing] A; assay: Inhibition of recombinant human MAO-A expressed in baculovirus infected BTI-TN-5B1-4 insect cells using p-tyramine as substrate incubated for 15 mins by Amplex Red reagent and horseradish peroxidase based fluorometric analysis

IC50 [1]: 17000 nM
Ki [2]: 4 nM
IC50 [3]: 2950 nM
SMILES: O=C(/C=C/C=C/c1ccccc1)c1ccco1

IC50 [4]: 120 nM
SMILES: CC(C)(C)c1ccc(S(=O)(=O)N2CCN(C(c3ccccc3)c3ccccc3)CC2)cc1

IC50 [5]: 168 nM
SMILES: O=[N+]([O-])c1cccc2cc(-c3ccccc3)oc12

From ChEMBL document CHEMBL5352403, “Monoamine oxidase inhibitors: A concise review with special emphasis on structure activity relationship studies” (Eur J Med Chem, 2022)
